# Results from BindingDB's records for doi:10.1021/jm9911229 (University of Ferrara, 2000).
# Where a name gives a salt, the structure may show the parent alone.
# Assay: Tested for 50% inhibition of generation of Human Ha-ras polymerase chain reaction(PCR) products
row,Structure (SMILES),IC50
1,Cn1cc(NC(=O)c2cc(NC(=O)c3cc(NC(=O)c4cc5cc(NC(=O)c6ccc(N(CCCl)CCCl)cc6)ccc5n4C)cn3C)cn2C)cc1C(=O)NCCC(=N)N [5-{4-[Bis-(2-chloro-ethyl)-amino]-benzoylamino}-1-methyl-1H-indole-2-carboxylic acid (5-{5-[5-(2-carbamimidoyl-ethylcarbamoyl)-1-methyl-1H-pyrrol-3-ylcarbamoyl]-1-methyl-1H-pyrrol-3-ylcarbamoyl}-1-methyl-1H-pyrrol-3-yl)-amide; hydrochloride],15 nM
2,Cn1cc(NC(=O)c2cc(NC(=O)c3cc(NC(=O)c4cc5cc(NC(=O)c6ccc(N(CCCl)CCCl)cc6)ccc5[nH]4)cn3C)cn2C)cc1C(=O)NCCC(=N)N [5-{4-[Bis-(2-chloro-ethyl)-amino]-benzoylamino}-1H-indole-2-carboxylic acid (5-{5-[5-(2-carbamimidoyl-ethylcarbamoyl)-1-methyl-1H-pyrrol-3-ylcarbamoyl]-1-methyl-1H-pyrrol-3-ylcarbamoyl}-1-methyl-1H-pyrrol-3-yl)-amide; hydrochloride],15 nM
3,Cn1cc(NC(=O)c2cc(NC(=O)c3cc(NC(=O)c4cc5cc(NC(=O)c6ccc(N(CCCl)CCCl)cc6)ccc5o4)cn3C)cn2C)cc1C(=O)NCCC(=N)N [5-{4-[Bis-(2-chloro-ethyl)-amino]-benzoylamino}-benzofuran-2-carboxylic acid (5-{5-[5-(2-carbamimidoyl-ethylcarbamoyl)-1-methyl-1H-pyrrol-3-ylcarbamoyl]-1-methyl-1H-pyrrol-3-ylcarbamoyl}-1-methyl-1H-pyrrol-3-yl)-amide; hydrochloride],15 nM
4,Cn1cc(NC(=O)c2cc(NC(=O)c3cc(NC(=O)c4nc5ccc(NC(=O)c6ccc(N(CCCl)CCCl)cc6)cc5[nH]4)cn3C)cn2C)cc1C(=O)NCCC(=N)N [5-{4-[Bis-(2-chloro-ethyl)-amino]-benzoylamino}-1H-benzoimidazole-2-carboxylic acid (5-{5-[5-(2-carbamimidoyl-ethylcarbamoyl)-1-methyl-1H-pyrrol-3-ylcarbamoyl]-1-methyl-1H-pyrrol-3-ylcarbamoyl}-1-methyl-1H-pyrrol-3-yl)-amide; hydrochloride],15 nM
5,Cn1cc(NC(=O)c2cc(NC(=O)c3cc(NC(=O)c4cc5cc(N(CCCl)CCCl)ccc5n4C)cn3C)cn2C)cc1C(=O)NCCC(=N)N [5-[Bis-(2-chloro-ethyl)-amino]-1-methyl-1H-indole-2-carboxylic acid (5-{5-[5-(2-carbamimidoyl-ethylcarbamoyl)-1-methyl-1H-pyrrol-3-ylcarbamoyl]-1-methyl-1H-pyrrol-3-ylcarbamoyl}-1-methyl-1H-pyrrol-3-yl)-amide; hydrochloride],20 nM
6,Cn1cc(NC(=O)c2cc(NC(=O)c3cc(NC(=O)c4cc5cc(N(CCCl)CCCl)ccc5[nH]4)cn3C)cn2C)cc1C(=O)NCCC(=N)N [5-[Bis-(2-chloro-ethyl)-amino]-1H-indole-2-carboxylic acid (5-{5-[5-(2-carbamimidoyl-ethylcarbamoyl)-1-methyl-1H-pyrrol-3-ylcarbamoyl]-1-methyl-1H-pyrrol-3-ylcarbamoyl}-1-methyl-1H-pyrrol-3-yl)-amide; hydrochloride],20 nM
7,Cn1cc(NC(=O)c2cc(NC(=O)c3cc(NC(=O)c4cc5cc(N(CCCl)CCCl)ccc5o4)cn3C)cn2C)cc1C(=O)NCCC(=N)N [5-[Bis-(2-chloro-ethyl)-amino]-benzofuran-2-carboxylic acid (5-{5-[5-(2-carbamimidoyl-ethylcarbamoyl)-1-methyl-1H-pyrrol-3-ylcarbamoyl]-1-methyl-1H-pyrrol-3-ylcarbamoyl}-1-methyl-1H-pyrrol-3-yl)-amide; hydrochloride],15 nM
